Read-outs that look alike come from different tables or passages of the source.

One data set relates to MDA-MB-231. Briefly: MTT cell viability assay, MDA-MB-231. The data set is classed as cell-based. Particulars: Homo sapiens. (Formazan colour is commonly taken as a measure of viable cells.)
For a further data set, the system named is IMR-90. As to the kind of experiment: Cell viability, IMR-90. The data set is classed as cell-based. Particulars: for EC50: Homo sapiens, IMR-90, Table 2. How it is done:
Cells were then treated with compound at various concentrations in 0.2 mL media. After the 72-hour incubation period, cells were washed in PBS (3×100 μL), and 10 μL MTT reagent was added with 100 μL fresh media. Cells were then incubated for 4 hr in a humidified chamber at 37° C. with 5% CO2. Insoluble formazan crystals were solubilized by addition of 0.1 mL detergent solution (4 hr at room temp., dark). Resulting colored solutions were then quantified at an absorbance of 570 nm.

The next data set can be described thus: Solubility. Type of data set: physicochemical.
In a further data set the test system is MCF-7. Briefly: MTT cell viability assay, MCF-7. The settings on record: for IC50: MTT, 72-hour incubation, read-out: IC50/μM MCF-7; for EC50: Table 2. Type of data set: cell-based.
The next data set deals with MEF (C57BL/6). Briefly: MTT cell viability assay, MEF (C57BL/6). The data set is classed as cell-based. The settings on record: for IC50 / EC50: Mus musculus; for EC50: Table 2.
A short description of a further data set: Microsomal stability. The data set is classed as in vitro ADME.
Where [1] appears, read: MTT, 72-hour incubation, read-out: IC50/μM MEF (C57BL/6).
The mark [2] stands for this setting: 72 h, read-out: IC50/μM MEF (C57BL/6), MTT, 72-hour incubation.
Where [3] appears, read: MDA-MB-231, 72 h, 72-hour incubation.

As a reminder, the EC50 is the concentration at which the effect is half-maximal. Low readings indicate higher potency in that assay, high ones lower potency in that assay. One may read the solubility as the concentration that dissolves in the medium under given conditions. Read a low solubility as little dissolved substance. As for `CCn1c(=O)/c(=C2\Sc3cc(SC)ccc3N2C)s/c1=C\c1scc[n+]1Cc1ccccc1C(F)(F)F.[Cl-]` [JG-312], the IC50 stood at 0.14 ± 0.01 µM in the data set on MDA-MB-231 (MDA-MB-231, 72-hour incubation); 0.1 ± 0.01 µM in the data set with MCF-7 (Homo sapiens, MCF7); 3.2 ± 0.2 µM in the data set with MEF (C57BL/6) (setting [1]). Also, the EC50 is over 10 µM in the data set on IMR-90; 0.1 ± 0.01 µM in the data set on MCF-7 (Homo sapiens, MCF7); 3.2 ± 0.2 µM with MEF (C57BL/6). Besides, the “SI IMR-90/MCF-7” value in the data set on IMR-90 (ratio of EC50 IMR-90 to EC50 MCF-7) is over 100. For the same compound, the solubility in “Solubility” is 16 µM. Also, the “SI MEF/MCF-7” value in the data set with MEF (C57BL/6) (ratio of EC50 MEF to EC50 MCF-7) is recorded as 32. Further, in the data set “Microsomal stability”, the Microsomal min amounted to 23 min.
Turning to `CCc1ccc2c(c1)S/C(=c1/s/c(=C\c3scc[n+]3Cc3ccc(C(F)(F)F)o3)n(CC)c1=O)N2C.[Cl-]` [JG-300], the IC50 worked out at 0.1 ± 0.01 µM with MDA-MB-231 (MDA-MB-231, 72-hour incubation); 0.11 ± 0.01 µM in the data set with MCF-7 (Homo sapiens, MCF7, 72 h); 1.4 ± 0.06 µM in the data set with MEF (C57BL/6) (setting [2]). Moreover, the EC50 turned out to be 3.3 ± 0.3 µM in the data set on IMR-90; 0.11 ± 0.01 µM with MCF-7 (Homo sapiens, MCF7); 1.4 ± 0.1 µM with MEF (C57BL/6). Moreover, in “Microsomal stability”, the Microsomal min worked out at 37 min.
On to `CCn1c(=O)/c(=C2\Sc3cc(SC)ccc3N2C)s/c1=C\c1scc[n+]1C(C)c1ccccc1` (centres unmarked) [JG-321], for which the IC50 with MDA-MB-231 (MDA-MB-231, 72-hour incubation) was found to be 0.14 ± 0.01 µM; in the data set on MCF-7 (Homo sapiens, MCF7) it was 0.23 ± 0.03 µM; in the data set on MEF (C57BL/6) (setting [1]), 1.8 ± 0.1 µM.
For `CCn1c(=O)/c(=C2\Sc3cc(F)ccc3N2C)s/c1=C\c1scc[n+]1Cc1cccc(Cl)c1` [JG-272], the IC50 in the data set on MDA-MB-231 (MDA-MB-231, 72-hour incubation) came out at 0.77 ± 0.1 µM; with MCF-7 (Homo sapiens, MCF7) it was 0.36 ± 0.02 µM; with MEF (C57BL/6) (setting [1]), 0.62 ± 0.03 µM.
With `CCc1ccc2c(c1)S/C(=c1/s/c(=C\c3scc[n+]3Cc3ccccc3C)n(CC)c1=O)N2C` [JG-296], the IC50 in the data set with MDA-MB-231 (MDA-MB-231, 72-hour incubation) was 0.14 ± 0.01 µM; with MCF-7 (Homo sapiens, MCF7) it was 0.1 ± 0.01 µM; in the data set on MEF (C57BL/6) (setting [1]) it was 0.61 ± 0.02 µM.
In the case of `CCn1c(=O)/c(=C2\Sc3cc(SC)ccc3N2C)s/c1=C\c1scc[n+]1Cc1ccc(C(F)(F)F)o1` [JG-314], the IC50 came out at 0.25 ± 0.04 µM in the data set with MDA-MB-231 (MDA-MB-231, 72-hour incubation); 0.57 ± 0.08 µM with MCF-7 (Homo sapiens, MCF7); 4.8 ± 0.9 µM in the data set on MEF (C57BL/6) (setting [1]).
Consider `CCn1c(=O)/c(=C2\Sc3cc(F)ccc3N2C)s/c1=C\c1scc[n+]1Cc1nc(C)sc1C` [JG-275], for which the IC50 with MDA-MB-231 (MDA-MB-231, 72-hour incubation) is 0.3 ± 0.03 µM; with MCF-7 (Homo sapiens, MCF7), 0.27 ± 0.03 µM; in the data set with MEF (C57BL/6) (setting [1]) it was 1.6 ± 0.1 µM.
Regarding `CCn1c(=O)/c(=C2\Sc3cc(Cl)ccc3N2C)s/c1=C\c1scc[n+]1CCc1cccc(Cl)c1` [JG-381], the IC50 amounted to 0.62 ± 0.05 µM in the data set on MDA-MB-231 (MDA-MB-231, 72-hour incubation); 0.55 ± 0.03 µM in the data set on MCF-7 (Homo sapiens, MCF7); 2.3 ± 0.2 µM in the data set with MEF (C57BL/6) (setting [1]).
For the compound `CCn1c(=O)/c(=C2\Sc3cc(Cl)ccc3N2C)s/c1=C\c1scc[n+]1Cc1occc1C(=O)OC` [JG-265], the IC50 in the data set on MDA-MB-231 (setting [3]) stood at 0.13 ± 0.01 µM; in the data set with MCF-7 (Homo sapiens, MCF7, 72 h), 0.81 ± 0.09 µM; in the data set on MEF (C57BL/6) (setting [2]) it was 2.7 ± 0.1 µM.
In turn, `CCn1c(=O)/c(=C2\Sc3cc(Cl)ccc3N2C)s/c1=C\c1scc[n+]1Cc1ccccc1.[Cl-]` [JG-98, reference compound] yielded a solubility in the data set “Solubility” of 31 µM. For the same compound, the EC50 with MCF-7 was 0.71 ± 0.22 µM. In the data set “Microsomal stability”, this compound yielded a Microsomal min of 37 min.
Regarding `CCn1c(=O)/c(=C2\Sc3cc(F)ccc3N2C)s/c1=C\c1scc[n+]1[C@@H](C)c1ccccc1` [JG-336], the IC50 in the data set with MDA-MB-231 (MDA-MB-231, 72-hour incubation) stood at 0.21 ± 0.02 µM; with MCF-7 (Homo sapiens, MCF7), 0.18 ± 0.02 µM; with MEF (C57BL/6) (setting [1]), 2.2 ± 0.1 µM.
For `CCn1c(=O)/c(=C2\SCCN2C)s/c1=C\c1ccccn1` [JG-273], in that order: over 20 µM, over 5 µM and over 10 µM.
For `CCn1c(=O)/c(=C2\Sc3cc(Br)ccc3N2C)s/c1=C\c1scc[n+]1Cc1ccccc1OC(F)(F)F` [JG-291], the IC50 was found to be 0.14 ± 0.01 µM with MDA-MB-231 (MDA-MB-231, 72-hour incubation); 0.14 ± 0.01 µM in the data set with MCF-7 (Homo sapiens, MCF7); 2.3 ± 0.1 µM in the data set with MEF (C57BL/6) (setting [1]).
Regarding `CCn1c(=O)/c(=C2\Sc3cc(F)c(F)cc3N2C)s/c1=C\c1scc[n+]1Cc1ccccc1` [JG-251], the IC50 with MDA-MB-231 (MDA-MB-231, 72-hour incubation) turned out to be 1.1 ± 0.1 µM; in the data set with MCF-7 (Homo sapiens, MCF7) it was 2.5 ± 0.5 µM; with MEF (C57BL/6) (setting [1]) it was 0.91 ± 0.06 µM.
`CCn1c(=O)/c(=C2\Sc3cc(C)ccc3N2C)s/c1=C\c1scc[n+]1Cc1ccccc1OC(F)(F)F` [JG-270]: the IC50 in the data set on MDA-MB-231 (setting [3]) was found to be 0.077 ± 0.009 µM; in the data set on MCF-7 (Homo sapiens, MCF7, 72 h), 0.064 ± 0.005 µM; in the data set on MEF (C57BL/6) (setting [2]), 0.75 ± 0.05 µM.
As for `CCn1c(=O)/c(=C2\Sc3cc(SC)ccc3N2C)s/c1=C\c1scc[n+]1Cc1c(C)cccc1C` [JG-355], the IC50 with MDA-MB-231 (MDA-MB-231, 72-hour incubation) turned out to be 0.21 ± 0.01 µM; in the data set on MCF-7 (Homo sapiens, MCF7) it was 0.28 ± 0.02 µM; in the data set on MEF (C57BL/6) (setting [1]), 1.5 ± 0.1 µM.
For `C=CCn1c(=O)/c(=C2\Sc3ccccc3N2C)s/c1=C\c1scc[n+]1Cc1ccccc1` [JG-276], in that order: 0.27 ± 0.03 µM, 0.24 ± 0.02 µM and 2.5 ± 0.1 µM.
With `CCn1c(=O)/c(=C2\Sc3cc(OC)ccc3N2C)s/c1=C\c1scc[n+]1Cc1c(C)cccc1C` [JG-349], the IC50 in the data set on MDA-MB-231 (MDA-MB-231, 72-hour incubation) is 0.23 ± 0.01 µM; in the data set with MCF-7 (Homo sapiens, MCF7), 0.12 ± 0.01 µM; in the data set with MEF (C57BL/6) (setting [1]), 1.1 ± 0.1 µM.
For `CCn1c(=O)/c(=C2\Sc3cc(Cl)ccc3N2C)s/c1=C\c1scc[n+]1Cc1ccccc1SC(F)(F)F` [JG-253], the IC50 in the data set on MDA-MB-231 (setting [3]) was determined as 0.16 ± 0.01 µM; in the data set on MCF-7 (Homo sapiens, MCF7, 72 h), 0.13 ± 0.01 µM; in the data set on MEF (C57BL/6) (setting [2]), 3.7 ± 0.2 µM.

Source of the values: US10221171B2, “Oxathiazole thiazolium Hsp 70 inhibitors” (THE REGENTS OF THE UNIVERSITY OF CALIFORNIA, priority 2015, dated 2019).
